The text below walks through data of patent US11274092B2, “Potassium channel inhibitors” (ACESION PHARMA ApS, priority 2016, dated 2022).

By pIC50 is commonly meant −log10 of the IC50, conventionally taken in molar units.

Each structure is given as a SMILES string. pIC50: −log10 of the molar value.

In the assay the target is T1, human SK3 channel (hKCa2.3) (Homo sapiens, UniProt Q9UGI6).
T1 construct: expressed in transfected cells
In words: Automated whole cell patch-clamp (QPatch 16 HT), inhibition of SK3 current. Conditions: HEK-293 cells stably expressing hKCa2.3; symmetrical K+ solutions, free calcium 400 nM; effects normalized to N-methyl bicuculline. Type of assay: cell-based. As to the method: Automated whole cell patch-clamp recordings were performed using a QPatch 16 HT system and single-hole Qplates (Biolin Scientific, Sophion, Denmark) on HEK-293 cells stably expressing the human SK3 channel (hKCa2.3). Cells were cultured and prepared for experiments using normal cell culturing procedures. A total of 4-5 million cells were used per experiment. The Qpatch automatically generates giga sealing, whole-cell formation, compound application and recording of current. hKCa2.3 currents were recorded in symmetrical K^+ solutions, with an intracellular solution consisting of in mM: KCl 108; KOH/EGTA (ethylene glycol-bis(2-aminoethylether)-N,N,N′,N′-tetraacetic acid) 31.25/10; CaCl2) 8.1; MgCl2 1.2; HEPES (2-[4-(2-hydroxyethyl)piperazin-1-yl]ethanesulfonic acid) 10; KOH 15, pH adjusted to pH=7.2 with HCl. The free calcium concentration was calculated to 400 nM. The extracellular solution consisted of in mM: KCl 150; CaCl2) 0.1; MgCl2 3; HEPES 10; Glucose 10, pH=7.4 with KOH. The cells were held at 0 mV and hKCa2.3 currents were elicited by a linear voltage ramp from […] (200 ms in duration) applied every 5th second. The compound application protocol consisted of 12 recording periods lasting from 50-200 s: 1) Baseline recordings in extracellular solution; 2) Application of the positive control N-methyl bicuculline (100 μM), which is characterized by full efficacy, fast on- and off-rate; 3-4) Wash-out; 5-9) Increasing concentrations of test compound to establish an IC50 value; 10-11) Wash-out; 12) positive control with compound NS8593 (N-[(1R)-1,2,3,4-tetrahydro-1-naphthalenyl]-1H-benzimidazol-2-amine) (1 μM). Data were sampled at 10 kHz, 4th order Bessel filter, cut-off frequency 3 kHz. Currents were compensated for run-down. Potency was quantified as the concentration needed to inhibit half of the SK channel activity and reported as an IC50 value. All effects of compounds of the present invention as tested were normalized to the observed inhibitory effect of N-methyl bicuculline.
Background: In patch-clamp work, channel activity is measured electrically.
Turning to `O=C(CC(Nc1nc2ccccc2[nH]1)c1cccc(C(F)(F)F)c1)NC1COC1` (centres unmarked) [Example 10, 3-[(1H-1,3-benzodiazol-2-yl)amino]-N-(oxetan-3-yl)-3-[3-(trifluoromethyl)phenyl]propanamide], the pIC50 was above 5.00.
The figure for `CN1CCN(C(=O)CC(Nc2nc3ccccc3[nH]2)c2cccc(C(F)(F)F)c2)CC1=O` (centres unmarked) [Example 11, 4-{3-[(1H-1,3-benzodiazol-2-yl)amino]-3-[3-(trifluoromethyl)phenyl]propanoyl}-1-methylpiperazin-2-one] is 4.00 to 5.00; for `O=C(CC(Nc1nc2ccccc2[nH]1)c1cccc(C(F)(F)F)c1)NCCNS(=O)(=O)Cc1ccccc1` (centres unmarked) [Example 12, 3-[(1H-1,3-benzodiazol-2-yl)amino]-N-[2-(phenylmethanesulfonamido)ethyl]-3-[3-(trifluoromethyl)phenyl]propanamide] it is 4.00 to 5.00.
Turning to `O=C(CC(Nc1nc2ccccc2[nH]1)c1cccc(C(F)(F)F)c1)N1CCC[C@@H](O)C1` (stereo partly drawn) [Example 13, 3-[(1H-1,3-benzodiazol-2-yl)amino]-1-[(3R)-3-hydroxypiperidin-1-yl]-3-[3-(trifluoromethyl)phenyl]propan-1-one], the pIC50 is 4.00 to 5.00.
The figure for `O=C(CC(Nc1nc2ccccc2[nH]1)c1cccc(C(F)(F)F)c1)N1CC[C@@H](O)C1` (stereo partly drawn) [Example 14, 3-[(1H-1,3-benzodiazol-2-yl)amino]-1-[(3R)-3-hydroxypyrrolidin-1-yl]-3-[3-(trifluoromethyl)phenyl]propan-1-one] is 4.00 to 5.00.
The figure for `O=C(CC(Nc1nc2ccccc2[nH]1)c1cccc(C(F)(F)F)c1)N1CC[C@H](O)C1` (stereo partly drawn) [Example 15, 3-[(1H-1,3-benzodiazol-2-yl)amino]-1-[(3S)-3-hydroxypyrrolidin-1-yl]-3-[3-(trifluoromethyl)phenyl]propan-1-one] is 4.00 to 5.00; for `O=C(CC(Nc1nc2ccccc2[nH]1)c1cccc(C(F)(F)F)c1)NCCCO` (centres unmarked) [Example 16, 3-[(1H-1,3-benzodiazol-2-yl)amino]-N-(3-hydroxypropyl)-3-[3-(trifluoromethyl)phenyl]propanamide] it is 4.00 to 5.00; for `CN(CCCO)C(=O)CC(Nc1nc2ccccc2[nH]1)c1cccc(C(F)(F)F)c1` (centres unmarked) [Example 17, 3-[(1H-1,3-benzodiazol-2-yl)amino]-N-(3-hydroxypropyl)-N-methyl-3-[3-(trifluoromethyl)phenyl]propanamide] it is above 5.00.
Consider `O=C(CC(Nc1nc2ccccc2[nH]1)c1cccc(C(F)(F)F)c1)NCc1ncco1` (centres unmarked) [Example 18, 3-[(1H-1,3-benzodiazol-2-yl)amino]-N-[(1,3-oxazol-2-yl)methyl]-3-[3-(trifluoromethyl)phenyl]propanamide], for which the negative-log IC50 (pIC50) was above 5.00.
The figure for `Cn1ccnc1CNC(=O)CC(Nc1nc2ccccc2[nH]1)c1cccc(C(F)(F)F)c1` (centres unmarked) [Example 19, 3-[(1H-1,3-benzodiazol-2-yl)amino]-N-[(1-methyl-1H-imidazol-2-yl)methyl]-3-[3-(trifluoromethyl)phenyl]propanamide] is 4.00 to 5.00; for `CCN(CCO)C(=O)CC(Nc1nc2ccccc2[nH]1)c1ccc(C)c(Cl)c1` (centres unmarked) [Example 20, 3-[(1H-1,3-benzodiazol-2-yl)amino]-3-(3-chloro-4-methylphenyl)-N-ethyl-N-(2-hydroxyethyl)propanamide] it is above 5.00; for `N#CCNC(=O)CC(Nc1nc2ccccc2[nH]1)c1cccc(C(F)(F)F)c1` (centres unmarked) [Example 21, 3-[(1H-1,3-benzodiazol-2-yl)amino]-N-(cyanomethyl)-3-[3-(trifluoromethyl)phenyl]propanamide] it is above 5.00.
Under `CN(C)C(=O)CNC(=O)CC(Nc1nc2ccccc2[nH]1)c1cccc(C(F)(F)F)c1` (centres unmarked) [Example 22, 3-[(1H-1,3-benzodiazol-2-yl)amino]-N-[(dimethylcarbamoyl)methyl]-3-[3-(trifluoromethyl)phenyl]propanamide] stands above 5.00.
The figure for `CCOC(=O)CNC(=O)CC(Nc1nc2ccccc2[nH]1)c1cccc(C(F)(F)F)c1` (centres unmarked) [Example 23, Ethyl 2-{3-[(1H-1,3-benzodiazol-2-yl)amino]-3-[3-(trifluoromethyl)phenyl]propanamido}acetate] is above 5.00; for `NCCNC(=O)C(Nc1nc2ccccc2[nH]1)c1cccc(C(F)(F)F)c1` (centres unmarked) [Example 24, N-(2-aminoethyl)-2-[(1H-1,3-benzodiazol-2-yl)amino]-2-[3-(trifluoromethyl)phenyl]acetamide] it is 4.00 to 5.00.
`CN(C)CCN(C)C(=O)C(Nc1nc2ccccc2[nH]1)c1cccc(C(F)(F)F)c1` (centres unmarked) [Example 25, 2-[(1H-1,3-benzodiazol-2-yl)amino]-N-[2-(dimethylamino)ethyl]-N-methyl-2-[3-(trifluoromethyl)phenyl]acetamide]: the pIC50 is 4.00 to 5.00.
Under `O=C(C(Nc1nc2ccccc2[nH]1)c1cccc(C(F)(F)F)c1)N1CCNCC1` (centres unmarked) [Example 26, 2-[(1H-1,3-benzodiazol-2-yl)amino]-1-(piperazin-1-yl)-2-[3-(trifluoromethyl)phenyl]ethan-1-one] stands 4.00 to 5.00; under `CN1CCN(C(=O)C(Nc2nc3ccccc3[nH]2)c2cccc(C(F)(F)F)c2)CC1` (centres unmarked) [Example 27, 2-[(1H-1,3-benzodiazol-2-yl)amino]-1-(4-methylpiperazin-1-yl)-2-[3-(trifluoromethyl)phenyl]ethan-1-one], above 5.00.
For the compound `CN(C)C1CN(C(=O)C(Nc2nc3ccccc3[nH]2)c2cccc(C(F)(F)F)c2)C1` (centres unmarked) [Example 28, 2-[(1H-1,3-benzodiazol-2-yl)amino]-1-[3-(dimethylamino)azetidin-1-yl]-2-[3-(trifluoromethyl)phenyl]ethan-1-one], the negative logarithm of the IC50 (pIC50) is 4.00 to 5.00.
As for `O=C(C(Nc1nc2ccccc2[nH]1)c1cccc(C(F)(F)F)c1)N1CCCC1` (centres unmarked) [Example 29, 2-[(1H-1,3-benzodiazol-2-yl)amino]-1-(pyrrolidin-1-yl)-2-[3-(trifluoromethyl)phenyl]ethan-1-one], the negative logarithm of the IC50 (pIC50) was above 5.00.
`CN(CCO)C(=O)C(Nc1nc2ccccc2[nH]1)c1cccc(C(F)(F)F)c1` (centres unmarked) [Example 30, 2-[(1H-1,3-benzodiazol-2-yl)amino]-N-(2-hydroxyethyl)-N-methyl-2-[3-(trifluoromethyl)phenyl]acetamide]: the pIC50 is above 5.00.
Under `O=C(C(Nc1nc2ccccc2[nH]1)c1cccc(C(F)(F)F)c1)N1CCCCC1` (centres unmarked) [Example 31, 2-[(1H-1,3-benzodiazol-2-yl)amino]-1-(piperidin-1-yl)-2-[3-(trifluoromethyl)phenyl]ethan-1-one] stands above 5.00; under `O=C(C(Nc1nc2ccccc2[nH]1)c1cccc(C(F)(F)F)c1)N1CCOCC1` (centres unmarked) [Example 32, 2-[(1H-1,3-benzodiazol-2-yl)amino]-1-(morpholin-4-yl)-2-[3-(trifluoromethyl)phenyl]ethan-1-one], above 5.00.
Under `CC(C)S(=O)(=O)N1CCN(C(=O)C(Nc2nc3ccccc3[nH]2)c2cccc(C(F)(F)F)c2)CC1` (centres unmarked) [Example 33, 2-[(1H-1,3-benzodiazol-2-yl)amino]-1-[4-(propane-2-sulfonyl)piperazin-1-yl]-2-[3-(trifluoromethyl)phenyl]ethan-1-one] stands 4.00 to 5.00; under `O=C(C(Nc1nc2ccccc2[nH]1)c1cccc(C(F)(F)F)c1)N1CCC1` (centres unmarked) [Example 34, 1-(azetidin-1-yl)-2-[(1H-1,3-benzodiazol-2-yl)amino]-2-[3-(trifluoromethyl)phenyl]ethan-1-one], above 5.00.
As to `O=C(NC1COC1)C(Nc1nc2ccccc2[nH]1)c1cccc(C(F)(F)F)c1` (centres unmarked) [Example 35, 2-[(1H-1,3-benzodiazol-2-yl)amino]-N-(oxetan-3-yl)-2-[3-(trifluoromethyl)phenyl]acetamide], the negative logarithm of the IC50 (pIC50) was 4.00 to 5.00.
Take `O=C(C(Nc1nc2ccccc2[nH]1)c1cccc(C(F)(F)F)c1)N1CC2(COC2)C1` (centres unmarked) [Example 36, 2-[(1H-1,3-benzodiazol-2-yl)amino]-1-{2-oxa-6-azaspiro[3.3]heptan-6-yl}-2-[3-(trifluoromethyl)phenyl]ethan-1-one]: the pIC50 is 4.00 to 5.00.
For the compound `C[N+]1(C)CCN(C(=O)C(Nc2nc3ccccc3[nH]2)c2cccc(C(F)(F)F)c2)CC1` (centres unmarked) [Example 37, 4-{2-[(1H-1,3-benzodiazol-2-yl)amino]-2-[3-(trifluoromethyl)phenyl]acetyl}-1,1-dimethylpiperazin-1-ium iodide], the negative logarithm of the IC50 (pIC50) was 4.00 to 5.00.
Under `CCN(CCO)C(=O)C(Nc1nc2ccccc2[nH]1)c1cccc(C(F)(F)F)c1` (centres unmarked) [Example 38, 2-[(1H-1,3-benzodiazol-2-yl)amino]-N-ethyl-N-(2-hydroxyethyl)-2-[3-(trifluoromethyl)phenyl]acetamide] stands above 5.00.
